Measurements: paper PMC11436758, “Computer-aided drug design to generate a unique antibiotic family” (Nature Communications, 2024)
≈ marks a conversion by molar mass, not a printed value. Where “and” joins values, the source holds several entries; their conditions need not be identical. Equal entries are not always repeated.

Columns and labels:
[1] = Histopathology (H&E) of treated rabbit ischemic ear wounds, dermal toxicity
Procedure: Wounds were excised, fixed, and routine H&E staining was performed. Wounds were examined for pathology and scored in a blinded manner.
Post-wounding, under anesthesia, animals were euthanized with an intravenous injection of Beuthanasia-D at a dosage of 150 mg/kg of body weight. Specimens including the entire wound, along with ~2–3 mm of the normal unwounded skin margins were harvested. Each ear wound specimen was sectioned into halves. For one half of the wound, the wound was placed into a container with 10% neutral buffered formalin and processed for routine histological evaluation. Wounds were scored on a scale of 0–4 at the wound site for erythema, edema, inflammation, granulation, angiogenesis, and epithelialization. Wounds were characterized in a blinded manner by a board-certified member of the College of American Pathologists.

[2] = system: wild type (K12) E. coli; test: MIC, wild type E. coli; format: cell-based; conditions: Escherichia coli
Source text: (§1) The outer membrane of Gram-negative bacteria is a robust permeability barrier that prevents many antibiotics from entering Gram-negative cells[46],[47]. The outer leaflet of this outer membrane is primarily composed of the unique lipid lipopolysaccharide (LPS). Strains of E. coli with point mutations in genes coding for LPS biosynthetic enzymes have been isolated that enable some antibiotics to effectively pass through the outer membrane enabling activity against these strains of E. coli[48]–[54]; one such strain is E. coli (D22) which contains a point mutation in the lpxC gene.
(§2) The medium employed for the assay was Mueller Hinton II Broth (MHB II; Becton-Dickinson, Sparks, MD, USA). Agar plates used for the organisms were trypticase soy agar plus 5% sheep blood (BD; Sparks, MD, USA). MIC assay plates were prepared using the CLSI broth microdilution procedure. Automated liquid handlers (Multidrop 384, Biomek 2000 and Biomek FX) were used to conduct serial dilutions and liquid transfers. A standardized inoculum of each organism was prepared per CLSI methods. Suspensions were prepared to equal a 0.5 McFarland standard, followed by a 1:20 dilution in test media. […] The microplates were viewed from the bottom using a plate viewer and the MIC was read. The MIC was recorded as the lowest concentration of drug that inhibited visible growth of the organism. […]

[3] = system: E. coli (D22); test: MIC, outer-membrane-permeable lpxC point mutant; format: cell-based; conditions: Escherichia coli
Source text: as §1, §2

[4] = molecular target: T1, AcpS^N82/81A (Escherichia coli, UniProt P24224, N81A); test: Inhibition of purified AcpS site-directed mutant by DNM0547; format: biochemical, E. coli; conditions: for AcpS rate nM/min, Mean / AcpS rate: Suppl Fig 3, [AcpS_N81A] 5nM; for AcpS rate: replicates
T1 construct: 6x-His (C); made in house

[5] = system: MRSA (ATCC 33591); test: MIC, CLSI broth microdilution; format: cell-based, S. aureus; conditions: three individual replicates
Procedure: The medium employed for the assay was Mueller Hinton II Broth (MHB II; Becton-Dickinson, Sparks, MD, USA). Agar plates used for the organisms were trypticase soy agar plus 5% sheep blood (BD; Sparks, MD, USA). MIC assay plates were prepared using the CLSI broth microdilution procedure. Automated liquid handlers (Multidrop 384, Biomek 2000 and Biomek FX) were used to conduct serial dilutions and liquid transfers. A standardized inoculum of each organism was prepared per CLSI methods. Suspensions were prepared to equal a 0.5 McFarland standard, followed by a 1:20 dilution in test media. The inocula were dispensed into sterile reservoirs divided by length (Beckman Colter) and the Biomek 2000 was used to inoculate the plates. Daughter plates were placed on the Biomek 2000 work surface in reverse orientation so that inoculation took place from low to high drug concentration. The Biomek 2000 delivered 10 μL of the diluted suspension into each well. These inoculations yielded a final cell concentration in the daughter plates of ~5 × 10^5 colony-forming units/mL in each well. The wells of the daughter plates ultimately contained 185 μL of broth, 5 μL of drug solution, and 10 μL of bacterial inoculum. Plates were covered with a sterile lid on the top plate, placed in plastic bags, and incubated at 35 °C for ~18 h. The microplates were viewed from the bottom using a plate viewer and the MIC was read. The MIC was recorded as the lowest concentration of drug that inhibited visible growth of the organism. Uninoculated solubility control plates were also observed for evidence of drug precipitation.

[6] = system: E. coli D22 over-expressing AcpS; test: MIC upon IPTG-induced over-expression of MBP-AcpS (MBP only as control); format: cell-based
Source text: Over-expression of AcpS was confirmed by western blot (Supplementary Fig. 6b). This is consistent with inhibition of AcpS being the major mechanism of action for the antimicrobial activity of DNM0547.
Supplementary Figure 6. Increased expression of AcpS increases the MIC of DNM0547. a , the minimum inhibitory concentration (MIC; µg/ml) of the D22 strain of E. coli upon expression of plasmid borne maltose binding protein (MBP) AcpS from an IPTG inducible promoter versus just over-expression of MBP only. The D22 strain of E. coli has a porous outer membrane due to a point mutation in the lpxC gene enabling some compounds to enter the cell that can not permeate wild type E. coli. AcpS is expressed as a fusion with MBP. MICs were determined upon IPTG induction of MBP-AcpS with expression of just MBP used as control. b, western blot against MBP (New England Biolabs E8032S, 1:1000 dilution) to assess expression; IPTG induced expression of MBP and MBP-AcpS at the expected M Wts. c, equal protein was added from each E. coli protein extract used for the western blot. Ponceau stain of the membrane to assess protein loading and transfer.
(also on this page, place not known: DH5a BL 21 D 22 pMAL pMAL pAcpS pAcpS pMAL pMAL pAcpS pAcpS pMAL + pMAL pAcpS + pAcpS - - + - + - + - + - a, AcpS MBP M Compound MBP MBP-AcpS DNM0547 32 256) […]

[7] = Dermal pharmacokinetics, serum concentration after topical application; format: in vivo, Sprague Dawley rats
Procedure: We determined that the maximum concentration present in serum was 1.02 μg/mL at 7.0 h after application with a time½ of 8.7 h. By 24 h the concentration of DNM0547 had decreased to 0.06 μg/mL and by 48 h was 0.03 μg/mL (Supplementary Fig. 8).
Rat PK. […]
Supplementary Figure 8. Dermal PK of DNM0547. a, 2% DNM0547 was applied to shaved skin of Sprague Dawley rats and DNM0547 concentration in serum was determined over time (n=5). b, PK parameters for DNM0547 in serum. CV, coefficient variation was determined using Graphpad Prism.
(1 picture or pasted object on this page, not shown here)

[8] = 2% on shaved skin, serum, mean, n=5

T1 sequence (P24224 whole entry N81A): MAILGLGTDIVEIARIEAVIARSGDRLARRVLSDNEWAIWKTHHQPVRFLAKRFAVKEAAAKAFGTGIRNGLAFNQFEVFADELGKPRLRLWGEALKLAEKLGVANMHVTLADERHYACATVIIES

SMILES: CC(C)c1cc(Cl)ccc1-c1cc(-c2nnn[nH]2)c(-c2ccc(Cl)cc2C(C)C)s1 [DNM0547]
- toxicity to dermal cells, histopathology ([1]; 2% cream, 18 days of exposure of the rabbit ear wound): no indication of toxicity
- erythema, edema, angiogenesis and epithelization scores ([1]; 2% cream, 18 days, compared to 2% mupirocin or cream control): improved
- Angiogenesis ([1]; Suppl Fig 7, score per wound): 1 and 2
- Edema ([1]; Suppl Fig 7, score per wound): 1 and 2
- Erythema ([1]; Suppl Fig 7, score per wound): 1 and 2
- Granulation ([1]; Suppl Fig 7, score per wound): 2 and 1
- Inflammation ([1]; Suppl Fig 7, score per wound): 2 and 3 and 4
- MIC [2]: 256 µg/mL (≈ 560 µM)
- MIC [3]: 32 µg/mL (≈ 70 µM)
- IC50 [4]: 5 µM
- AcpS rate nM/min, Mean ([4]; Drug Conc 1 uM): 7.81 nM/min
- AcpS rate ([4]; Drug Conc 1 uM): 7.96 nM/min and 7.81 nM/min and 7.64 nM/min
- AcpS rate nM/min, Mean ([4]; Drug Conc 2 uM): 6.86 nM/min
- AcpS rate ([4]; Drug Conc 2 uM): 6.91 nM/min and 7.01 nM/min and 6.66 nM/min
- AcpS rate nM/min, Mean ([4]; Drug Conc 4 uM): 4.72 nM/min
- AcpS rate ([4]; Drug Conc 4 uM): 4.74 nM/min and 4.76 nM/min and 4.66 nM/min
- AcpS rate nM/min, Mean ([4]; Drug Conc 8 uM): 3.23 nM/min
- AcpS rate ([4]; Drug Conc 8 uM): 2.93 nM/min and 3.30 nM/min and 3.44 nM/min
- AcpS rate nM/min, Mean ([4]; Drug Conc 16 uM): 2.83 nM/min
- AcpS rate ([4]; Drug Conc 16 uM): 3.20 nM/min and 2.39 nM/min and 2.90 nM/min
- AcpS rate nM/min, Mean ([4]; Drug Conc 32 uM): 1.69 nM/min
- AcpS rate ([4]; Drug Conc 32 uM): 1.65 nM/min and 1.74 nM/min and 1.68 nM/min
- AcpS rate nM/min, Mean ([4]; Drug Conc 64 uM): 1.60 nM/min
- AcpS rate ([4]; Drug Conc 64 uM): 1.52 nM/min and 1.63 nM/min and 1.65 nM/min
- AcpS rate nM/min, Mean ([4]; Drug Conc 128 uM): 1.34 nM/min
- AcpS rate ([4]; Drug Conc 128 uM): 1.38 nM/min and 1.44 nM/min and 1.20 nM/min
- remaining activity at 1 µM ([4]; read-out: % of untreated, Suppl Fig 3, [AcpS_N81A] 5nM, Drug Conc 1 uM, replicates): 105%
- remaining activity at 2 µM ([4]; read-out: % of untreated, Suppl Fig 3, [AcpS_N81A] 5nM, Drug Conc 2 uM, replicates): 90.9%
- remaining activity at 4 µM ([4]; read-out: % of untreated, Suppl Fig 3, [AcpS_N81A] 5nM, Drug Conc 4 uM, replicates): 62.4%
- remaining activity at 8 µM ([4]; read-out: % of untreated, Suppl Fig 3, [AcpS_N81A] 5nM, Drug Conc 8 uM, replicates): 38.5%
- remaining activity at 16 µM ([4]; read-out: % of untreated, Suppl Fig 3, [AcpS_N81A] 5nM, Drug Conc 16 uM, replicates): 42.1%
- remaining activity at 32 µM ([4]; read-out: % of untreated, Suppl Fig 3, [AcpS_N81A] 5nM, Drug Conc 32 uM, replicates): 21.7%
- remaining activity at 64 µM ([4]; read-out: % of untreated, Suppl Fig 3, [AcpS_N81A] 5nM, Drug Conc 64 uM, replicates): 20%
- remaining activity at 128 µM ([4]; read-out: % of untreated, Suppl Fig 3, [AcpS_N81A] 5nM, Drug Conc 128 uM, replicates): 18.1%
- MIC [5]: 2 µg/mL (≈ 4.37 µM)
- MIC ([6]; E. coli D22, IPTG-induced MBP only (control)): 32 µg/mL (≈ 70 µM)
- MIC ([6]; E. coli D22, IPTG-induced MBP-AcpS): 256 µg/mL (≈ 560 µM)
- MIC ([6]; Escherichia coli, E. coli D22 with over-expression of AcpS): 256 µg/mL (≈ 560 µM)
- MIC ([6]; Escherichia coli, Suppl Fig 6a, MBP (control), replicates): 32 µg/mL (≈ 70 µM)
- MIC ([6]; Escherichia coli, Suppl Fig 6a, MBP-AcpS, replicates): 256 µg/mL (≈ 560 µM)
- MIC ([6]; Suppl Fig 6a, MBP (control), replicates): 32 µg/mL (≈ 70 µM)
- MIC ([6]; Suppl Fig 6a, MBP-AcpS, replicates): 256 µg/mL and >256 µg/mL
- maximum concentration present in serum ([7]; 2% applied topically): 1.02 µg/mL
- Concmax [7, 8]: 1020 ng/mL
- Time1/2 [7, 8]: 8.78 h and 8.7 h
- Timemax [7, 8]: 7.00 h and 7.0 h
- concentration at 6 h ([7]; Sprague Dawley, rat, in vivo, 2 %, Suppl Fig 8, Hour 6, individual animals, read-out: DNM0547 conc): 261 ng/mL
- concentration at 12 h ([7]; Sprague Dawley, rat, in vivo, 2 %, Suppl Fig 8, Hour 12, individual animals, read-out: DNM0547 conc): 386 ng/mL
- Tmax ([7]; Sprague Dawley, rat, serum, topical or ocular, 2% applied topically, read-out: time of maximum serum concentration after application): 7 h
- concentration at 24 h ([7]; Sprague Dawley, rat, serum, topical, 2 %, 2% applied topically, 24 h): 60 ng/mL
- concentration at 48 h ([7]; Sprague Dawley, rat, serum, topical, 2 %, 2% applied topically, 48 h): 30 ng/mL
- DNM0547 conc ([7]; Suppl Fig 8, Hour 3, individual animals): 387 ng/mL and 281 ng/mL and 713 ng/mL and 1147 ng/mL and 236 ng/mL and 356 ng/mL
- DNM0547 conc ([7]; Suppl Fig 8, Hour 6, individual animals): 449 ng/mL and 1172 ng/mL and 560 ng/mL and 656 ng/mL and 1620 ng/mL
- DNM0547 conc ([7]; Suppl Fig 8, Hour 9, individual animals): 623 ng/mL and 414 ng/mL and 681 ng/mL and 201 ng/mL and 177 ng/mL and 767 ng/mL
- DNM0547 conc ([7]; Suppl Fig 8, Hour 12, individual animals): 477 ng/mL and 879 ng/mL and 564 ng/mL and 277 ng/mL and 158 ng/mL
- DNM0547 conc ([7]; Suppl Fig 8, Hour 24, individual animals): 65 ng/mL and 33 ng/mL and 92 ng/mL and 38 ng/mL and 45 ng/mL and 60 ng/mL
- DNM0547 conc ([7]; Suppl Fig 8, Hour 48, individual animals): 46 ng/mL and 21 ng/mL and 55 ng/mL and 17 ng/mL and 16 ng/mL and 14 ng/mL
